US9676789B2, “Aminated derivative of homoharringtonine, preparation method therefor, and application thereof” (HANGZHOU BENSHENG PHARMACEUTICAL CO., LTD., priority 2011, dated 2017)
Converted amounts (≈) assume the structure as drawn.

Columns and labels:
[1] = system: H9 (acute lymphoblastic leukemia, ALL); test: MTT leukemia cell growth inhibition, 72 h; assay type: cell-based, human; conditions: Homo sapiens, H9, 72 h; for IC50: read-out: IC50; for IC90: read-out: IC90
Source text: (§1) Leukemia cell lines: K562/adr (drug-resistant, chronic myeloid leukemia, CML), NB4 (acute promyelocytic leukemia, AML), Kasumi-1 (acute myeloid leukemia M2 type, AML-M2), Jurkat (acute lymphoblastic leukemia, ALL), all of which are donated by Cancer Research Institute of Zhejiang University, China; and H9 (acute lymphoblastic leukemia, ALL), which is purchased from China Center for Type Culture Collection.
(§2) Obtaining 6000 well-growing leukemia cells and inoculating them into wells of a 96-well cell culture plate. The culture medium is the 1640 cell culture medium containing 10% fetal bovine serum. After adding the homoharringtonine derivatives of different concentrations and mixing uniformly, placing the plate in a carbon dioxide cell incubator (5% CO2) at 37° C. and incubating for 72 hours. Then the viable cell concentration is determined by the MTT method. In this experiment, the cell viability in control group (not treated with any compound) is set as 100%.

[2] = system: Jurkat (acute lymphoblastic leukemia, ALL); test: MTT leukemia cell growth inhibition, 72 h; assay type: cell-based, human; conditions: Homo sapiens; for IC50: read-out: IC50; for IC90: read-out: IC90
Source text: as §1, §2

[3] = system: K562/adr (drug-resistant, chronic myeloid leukemia, CML); test: MTT leukemia cell growth inhibition, 72 h; assay type: cell-based, human; conditions: Homo sapiens, K562/Adr; for IC50: read-out: IC50; for IC90: read-out: IC90
Source text: as §1, §2

[4] = system: Kasumi-1 (acute myeloid leukemia M2 type, AML-M2); test: MTT leukemia cell growth inhibition, 72 h; assay type: cell-based, human; conditions: Homo sapiens, Kasumi-1, 72 h; for IC50: read-out: IC50; for IC90: read-out: IC90
Source text: as §1, §2

[5] = system: NB4 (acute promyelocytic leukemia, AML); test: MTT leukemia cell growth inhibition, 72 h; assay type: cell-based, human; conditions: Homo sapiens, NB4, 72 h; for IC50: read-out: IC50; for IC90: read-out: IC90
Source text: as §1, §2

[6] = system: RPMI8226 (multiple myeloma); test: MTT multiple myeloma cell growth inhibition, 72 h; assay type: cell-based, human; conditions: Homo sapiens, RPMI-8226, RPMI8226, 72 h; for IC50: read-out: IC50; for IC90: read-out: IC90
Procedure: Multiple myeloma and lymphoma cell lines: RPMI8226 (multiple myeloma), purchased from Fuxiang Bio-tech Co. Ltd., Shanghai, China.
as §2, with “method.” for “method. In this experiment, the cell viability in control group (not treated with any compound) is set as 100%.”

A549 (human lung cancer) = test: MTT solid tumor cell growth inhibition, 72 h; assay type: cell-based; conditions: Homo sapiens, A549, 72 h; for IC50: read-out: IC50; for IC90: read-out: IC90
Procedure: (§3) Human solid tumor cell lines: Hep-2 ([…]), A549 (human lung cancer), CaES-17 (esophageal cancer cell), PC-3 (prostate cancer), CNE (nasopharyngeal carcinoma cell), and SK-OV-3 (ovarian cancer cell), all of which are purchased from China Center For Type Culture Collection; RKO (human colon adenocarcinoma cell), MGC 803 (human gastric cancer cell), MG63 (osteosarcoma) and U87 MG (malignant glioma cell), all of which are purchased from Fuxiang Bio-tech Co. Ltd., Shanghai, China; PANC-1 (pancreatic cancer), Huh7 (human liver cancer cell), Becap37 (human breast cancer cell), and Hela (human cervical cancer cell), all of which are donated by Cancer Research Institute of Zhejiang University, China.
(§4) Obtaining 4000 well-growing human solid tumor cells and inoculating them into wells of a 96-well cell culture plate. The culture medium is DMEM High Glucose cell culture medium containing 10% fetal bovine serum. The plate is placed in a carbon dioxide cell incubator (5% CO2) at 37° C. and incubating for 24 hours. After adding the homoharringtonine derivatives of different concentration and mixing uniformly, the plate is placed in a carbon dioxide cell incubator (5% CO2) at 37° C. and incubating for 72 hours. Then the viable cell concentration is determined by the MTT method and the cell viability (%) after drug treatment is calculated. In this experiment, the cell viability of control group (not treated with any compound) is set as 100%.

[7] = system: Becap37 (human breast cancer cell); test: MTT solid tumor cell growth inhibition, 72 h; assay type: cell-based; conditions: Homo sapiens, Becap37, 72 h; for IC50: read-out: IC50; for IC90: read-out: IC90
Procedure: as §3, §4

[8] = system: Huh7 (human liver cancer cell); test: MTT solid tumor cell growth inhibition, 72 h; assay type: cell-based; conditions: Homo sapiens, Huh-7, Huh7, 72 h; for IC50: read-out: IC50; for IC90: read-out: IC90
Procedure: as §3, §4

[9] = system: RKO (human colon adenocarcinoma cell); test: MTT solid tumor cell growth inhibition, 72 h; assay type: cell-based; conditions: Homo sapiens
Procedure: as §3, §4

MG63 (osteosarcoma) = test: MTT solid tumor cell growth inhibition, 72 h; assay type: cell-based, human; conditions: Homo sapiens, MG 63, 72 h; for IC50: read-out: IC50; for IC90: read-out: IC90
Procedure: as §3, §4

[10] = system: PANC-1 (pancreatic cancer); test: MTT solid tumor cell growth inhibition, 72 h; assay type: cell-based, human; conditions: Homo sapiens, PANC-1, 72 h; for IC50: read-out: IC50; for IC90: read-out: IC90
Procedure: as §3, §4

[11] = system: MGC 803 (human gastric cancer cell); test: MTT solid tumor cell growth inhibition, 72 h; assay type: cell-based; conditions: Homo sapiens, MGC 803, 72 h; for IC50: read-out: IC50; for IC90: read-out: IC90
Procedure: as §3, §4

| Structure (SMILES) | IC50 [1] | IC90 [1] | IC50 [2] | IC90 [2] | IC50 [3] | IC90 [3] | IC50 [4] | IC90 [4] | IC50 [5] | IC90 [5] | IC50 [6] | IC90 [6] | IC50 (A549 (human lung cancer)) | IC90 (A549 (human lung cancer)) | IC50 [7] | IC90 [7] | IC50 [8] | IC90 [8] | IC50 (MG63 (osteosarcoma)) | IC90 (MG63 (osteosarcoma)) | also measured |
| --- | --- | --- | --- | --- | --- | --- | --- | --- | --- | --- | --- | --- | --- | --- | --- | --- | --- | --- | --- | --- | --- |
| COC1=C[C@]23CCCN2CCc2cc4c(cc2[C@@H]3[C@@H]1OC(=O)[C@@](O)(CCCC(C)(C)O)CC(=O)Nc1nccs1)OCO4 [BS-HH-008] | 13.4 µg/mL (≈ 21.9 µM) | > 16 µg/mL | 4.69 µg/mL (≈ 7.64 µM) | 16 µg/mL (≈ 26.1 µM) | > 16 µg/mL | > 16 µg/mL | 5 µg/mL (≈ 8.15 µM) | > 16 µg/mL | 5.62 µg/mL (≈ 9.16 µM) | 12.8 µg/mL (≈ 20.9 µM) | 11 µg/mL (≈ 17.9 µM) | > 16 µg/mL | 16 µg/mL (≈ 26.1 µM) | > 16 µg/mL | > 16 µg/mL | > 16 µg/mL | 11.2 µg/mL (≈ 18.3 µM) | > 16 µg/mL | 15.5 µg/mL (≈ 25.3 µM) | > 16 µg/mL | IC50 ([9]; read-out: IC50): 4.44 µg/mL (≈ 7.23 µM); IC90 ([9]; read-out: IC90): 16 µg/mL (≈ 26.1 µM); IC50 [10]: > 16 µg/mL; IC90 [10]: > 16 µg/mL |
| COCCCNC(=O)C[C@](O)(CCCC(C)(C)O)C(=O)O[C@@H]1C(OC)=C[C@]23CCCN2CCc2cc4c(cc2[C@H]13)OCO4 [BS-HH-028] | 6.52 µg/mL (≈ 10.8 µM) | > 16 µg/mL | 3.56 µg/mL (≈ 5.91 µM) | 15 µg/mL (≈ 25 µM) | > 16 µg/mL | > 16 µg/mL | 2.75 µg/mL (≈ 4.56 µM) | 13 µg/mL (≈ 21.6 µM) | 2.59 µg/mL (≈ 4.3 µM) | 7.52 µg/mL (≈ 12.5 µM) | 4.92 µg/mL (≈ 8.16 µM) | > 16 µg/mL | 16 µg/mL (≈ 26.5 µM) | > 16 µg/mL | 13.1 µg/mL (≈ 21.8 µM) | > 16 µg/mL | 5.93 µg/mL (≈ 9.84 µM) | > 16 µg/mL | 6.8 µg/mL (≈ 11.3 µM) | > 16 µg/mL | IC50 [11]: 8.62 µg/mL (≈ 14.3 µM); IC90 [11]: 24.3 µg/mL (≈ 40.4 µM); IC50 [10]: 16 µg/mL (≈ 26.5 µM); IC90 [10]: > 16 µg/mL |
| COC1=C[C@]23CCCN2CCc2cc4c(cc2[C@@H]3[C@@H]1OC(=O)[C@@](O)(CCCC(C)(C)O)CC(=O)N1CCC(C#N)CC1)OCO4 [BS-HH-035] | 5.49 µg/mL (≈ 8.8 µM) | > 16 µg/mL | 0.87 µg/mL (≈ 1.39 µM) | > 16 µg/mL | 14.1 µg/mL (≈ 22.6 µM) | > 16 µg/mL | 0.8 µg/mL (≈ 1.28 µM) | 2.96 µg/mL (≈ 4.75 µM) | 0.72 µg/mL (≈ 1.15 µM) | 6.3 µg/mL (≈ 10.1 µM) | 1.44 µg/mL (≈ 2.31 µM) | 14.1 µg/mL (≈ 22.7 µM) | 5.41 µg/mL (≈ 8.67 µM) | > 16 µg/mL | 3.75 µg/mL (≈ 6.01 µM) | > 16 µg/mL | 4.46 µg/mL (≈ 7.15 µM) | > 16 µg/mL | 1.98 µg/mL (≈ 3.17 µM) | > 16 µg/mL | IC50 [11]: 1.79 µg/mL (≈ 2.87 µM); IC90 [11]: 9.2 µg/mL (≈ 14.7 µM); IC50 [10]: 5.02 µg/mL (≈ 8.05 µM); IC90 [10]: > 16 µg/mL |
| COC1=C[C@]23CCCN2CCc2cc4c(cc2[C@@H]3[C@@H]1OC(=O)[C@@](O)(CCCC(C)(C)O)CC(=O)N1CCCCC1C)OCO4 (stereo partly drawn) [BS-HH-037] | 3.69 µg/mL (≈ 6.02 µM) | > 16 µg/mL | 0.41 µg/mL (≈ 0.669 µM) | > 16 µg/mL | > 16 µg/mL | > 16 µg/mL | 1.58 µg/mL (≈ 2.58 µM) | 16 µg/mL (≈ 26.1 µM) | 0.7 µg/mL (≈ 1.14 µM) | 5.08 µg/mL (≈ 8.29 µM) | 1 µg/mL (≈ 1.63 µM) | 9.86 µg/mL (≈ 16.1 µM) | 1.96 µg/mL (≈ 3.2 µM) | > 16 µg/mL | 1.5 µg/mL (≈ 2.45 µM) | > 16 µg/mL | 16 µg/mL (≈ 26.1 µM) | > 16 µg/mL | 1.44 µg/mL (≈ 2.35 µM) | 16 µg/mL (≈ 26.1 µM) | IC50 [11]: 0.9 µg/mL (≈ 1.47 µM); IC90 [11]: 9.29 µg/mL (≈ 15.2 µM); IC50 [10]: 6.47 µg/mL (≈ 10.6 µM); IC90 [10]: > 16 µg/mL |
